# System: CAL-120
# Assay: normalised response (% of control), CellTox Green; higher = less cell death (100 = DMSO, 0 = benzethonium chloride kill control)
# Settings: incubation time: 72 h
# Procedure, shortened: (§1)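 Every value is a normalised signal taken at one concentration of a dilution series. Compound was placed in 384-well plates at 5 concentrations in 10-fold steps over a compound-specific 10,000-fold range, and 20 µl of breast cancer cell suspension was seeded onto it. After 72 h, CellTox Green fluorescence (485/520 nm) was measured first and CellTiter-Glo luminescence second, following 10 min at room temperature. Each plate was scaled to 0.1 % DMSO (100) and a positive kill control (0).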
row,Structure (SMILES),normalised response [%]
1,CNC(=O)c1cccc(-c2ccc3c(N4CCOC[C@@H]4C)nc(N4CCOC[C@@H]4C)nc3n2)c1 [AZD2014] (1000 nM),105
2,Nc1cc(C(F)(F)F)c(-c2cc(N3CCOCC3)nc(N3CCOCC3)n2)cn1 [Buparlisib] (1000 nM),100
3,CCOC(=O)CCNc1cc(N2CCc3ccccc3CC2)nc(-c2ccccn2)n1 [GSK-J4] (10000 nM),87.7
4,Cc1cc(Nc2cc(CN3CCOCC3)c3nc(C)c(Cc4ccc(Cl)cc4F)n3n2)n[nH]1 [Gandotinib] (1000 nM),97.4
5,COc1cc2c(NC3CCN(C(C)C)CC3)nc(N3CCC(F)(F)CC3)nc2cc1OCCCN1CCCC1 [UNC0642] (1000 nM),96.9

# System: CAL-148
# Assay: as above
# Settings: incubation time: 72 h
# Procedure, shortened: as §1
row,Structure (SMILES),normalised response [%]
1,CCn1c(-c2nonc2N)nc2cnc(Oc3cccc(NC(=O)c4ccc(OCCN5CCOCC5)cc4)c3)cc21 (1000 nM),83.5
2,CNC(=O)c1cccc(-c2ccc3c(N4CCOC[C@@H]4C)nc(N4CCOC[C@@H]4C)nc3n2)c1 [AZD2014] (1000 nM),46.1
3,Nc1cc(C(F)(F)F)c(-c2cc(N3CCOCC3)nc(N3CCOCC3)n2)cn1 [Buparlisib] (1000 nM),91.7
4,CCOC(=O)CCNc1cc(N2CCc3ccccc3CC2)nc(-c2ccccn2)n1 [GSK-J4] (10000 nM),53.5
5,Cc1cc(Nc2cc(CN3CCOCC3)c3nc(C)c(Cc4ccc(Cl)cc4F)n3n2)n[nH]1 [Gandotinib] (1000 nM),104
6,COc1cc2c(NC3CCN(C(C)C)CC3)nc(N3CCC(F)(F)CC3)nc2cc1OCCCN1CCCC1 [UNC0642] (1000 nM),94.5

# System: BT-474
# Assay: as above
# Settings: incubation time: 72 h
# Procedure, shortened: as §1
row,Structure (SMILES),normalised response [%]
1,CCn1c(-c2nonc2N)nc2cnc(Oc3cccc(NC(=O)c4ccc(OCCN5CCOCC5)cc4)c3)cc21 (1000 nM),101
2,CNC(=O)c1cccc(-c2ccc3c(N4CCOC[C@@H]4C)nc(N4CCOC[C@@H]4C)nc3n2)c1 [AZD2014] (1000 nM),96.9
3,Nc1cc(C(F)(F)F)c(-c2cc(N3CCOCC3)nc(N3CCOCC3)n2)cn1 [Buparlisib] (1000 nM),94.7
4,CCOC(=O)CCNc1cc(N2CCc3ccccc3CC2)nc(-c2ccccn2)n1 [GSK-J4] (10000 nM),-18.4
5,Cc1cc(Nc2cc(CN3CCOCC3)c3nc(C)c(Cc4ccc(Cl)cc4F)n3n2)n[nH]1 [Gandotinib] (1000 nM),104
6,COc1cc2c(NC3CCN(C(C)C)CC3)nc(N3CCC(F)(F)CC3)nc2cc1OCCCN1CCCC1 [UNC0642] (1000 nM),97.4

# System: CAL-85-1
# Assay: as above
# Settings: incubation time: 72 h
# Procedure, shortened: as §1
row,Structure (SMILES),normalised response [%]
1,CCn1c(-c2nonc2N)nc2cnc(Oc3cccc(NC(=O)c4ccc(OCCN5CCOCC5)cc4)c3)cc21 (1000 nM),109
2,CNC(=O)c1cccc(-c2ccc3c(N4CCOC[C@@H]4C)nc(N4CCOC[C@@H]4C)nc3n2)c1 [AZD2014] (1000 nM),104
3,Nc1cc(C(F)(F)F)c(-c2cc(N3CCOCC3)nc(N3CCOCC3)n2)cn1 [Buparlisib] (1000 nM),106
4,CCOC(=O)CCNc1cc(N2CCc3ccccc3CC2)nc(-c2ccccn2)n1 [GSK-J4] (10000 nM),2.31
5,Cc1cc(Nc2cc(CN3CCOCC3)c3nc(C)c(Cc4ccc(Cl)cc4F)n3n2)n[nH]1 [Gandotinib] (1000 nM),78.5
6,COc1cc2c(NC3CCN(C(C)C)CC3)nc(N3CCC(F)(F)CC3)nc2cc1OCCCN1CCCC1 [UNC0642] (1000 nM),97.7

# System: MDA-MB-231
# Assay: as above
# Settings: incubation time: 72 h
# Procedure, shortened: as §1
row,Structure (SMILES),normalised response [%]
1,CCn1c(-c2nonc2N)nc2cnc(Oc3cccc(NC(=O)c4ccc(OCCN5CCOCC5)cc4)c3)cc21 (1000 nM),79.5
2,CNC(=O)c1cccc(-c2ccc3c(N4CCOC[C@@H]4C)nc(N4CCOC[C@@H]4C)nc3n2)c1 [AZD2014] (1000 nM),104
3,Nc1cc(C(F)(F)F)c(-c2cc(N3CCOCC3)nc(N3CCOCC3)n2)cn1 [Buparlisib] (1000 nM),80
4,CCOC(=O)CCNc1cc(N2CCc3ccccc3CC2)nc(-c2ccccn2)n1 [GSK-J4] (10000 nM),57.7
5,Cc1cc(Nc2cc(CN3CCOCC3)c3nc(C)c(Cc4ccc(Cl)cc4F)n3n2)n[nH]1 [Gandotinib] (1000 nM),101
6,COc1cc2c(NC3CCN(C(C)C)CC3)nc(N3CCC(F)(F)CC3)nc2cc1OCCCN1CCCC1 [UNC0642] (1000 nM),92.8

# System: MDA-MB-468
# Assay: as above
# Settings: incubation time: 72 h
# Procedure, shortened: as §1
row,Structure (SMILES),normalised response [%]
1,CCn1c(-c2nonc2N)nc2cnc(Oc3cccc(NC(=O)c4ccc(OCCN5CCOCC5)cc4)c3)cc21 (1000 nM),111
2,CNC(=O)c1cccc(-c2ccc3c(N4CCOC[C@@H]4C)nc(N4CCOC[C@@H]4C)nc3n2)c1 [AZD2014] (1000 nM),132
3,Nc1cc(C(F)(F)F)c(-c2cc(N3CCOCC3)nc(N3CCOCC3)n2)cn1 [Buparlisib] (1000 nM),165
4,CCOC(=O)CCNc1cc(N2CCc3ccccc3CC2)nc(-c2ccccn2)n1 [GSK-J4] (10000 nM),40.1
5,Cc1cc(Nc2cc(CN3CCOCC3)c3nc(C)c(Cc4ccc(Cl)cc4F)n3n2)n[nH]1 [Gandotinib] (1000 nM),99.5
6,COc1cc2c(NC3CCN(C(C)C)CC3)nc(N3CCC(F)(F)CC3)nc2cc1OCCCN1CCCC1 [UNC0642] (1000 nM),146

# System: MDA-MB-453
# Assay: as above
# Settings: incubation time: 72 h
# Procedure, shortened: as §1
row,Structure (SMILES),normalised response [%]
1,CCn1c(-c2nonc2N)nc2cnc(Oc3cccc(NC(=O)c4ccc(OCCN5CCOCC5)cc4)c3)cc21 (1000 nM),98.7
2,CNC(=O)c1cccc(-c2ccc3c(N4CCOC[C@@H]4C)nc(N4CCOC[C@@H]4C)nc3n2)c1 [AZD2014] (1000 nM),102
3,Nc1cc(C(F)(F)F)c(-c2cc(N3CCOCC3)nc(N3CCOCC3)n2)cn1 [Buparlisib] (1000 nM),98.9
4,CCOC(=O)CCNc1cc(N2CCc3ccccc3CC2)nc(-c2ccccn2)n1 [GSK-J4] (10000 nM),88.5
5,Cc1cc(Nc2cc(CN3CCOCC3)c3nc(C)c(Cc4ccc(Cl)cc4F)n3n2)n[nH]1 [Gandotinib] (1000 nM),107
6,COc1cc2c(NC3CCN(C(C)C)CC3)nc(N3CCC(F)(F)CC3)nc2cc1OCCCN1CCCC1 [UNC0642] (1000 nM),102

# System: HCC1599
# Assay: as above
# Settings: incubation time: 72 h
# Procedure, shortened: as §1
row,Structure (SMILES),normalised response [%]
1,CCn1c(-c2nonc2N)nc2cnc(Oc3cccc(NC(=O)c4ccc(OCCN5CCOCC5)cc4)c3)cc21 (1000 nM),95
2,CNC(=O)c1cccc(-c2ccc3c(N4CCOC[C@@H]4C)nc(N4CCOC[C@@H]4C)nc3n2)c1 [AZD2014] (1000 nM),92.1
3,Nc1cc(C(F)(F)F)c(-c2cc(N3CCOCC3)nc(N3CCOCC3)n2)cn1 [Buparlisib] (1000 nM),95.4
4,CCOC(=O)CCNc1cc(N2CCc3ccccc3CC2)nc(-c2ccccn2)n1 [GSK-J4] (10000 nM),80.2
5,Cc1cc(Nc2cc(CN3CCOCC3)c3nc(C)c(Cc4ccc(Cl)cc4F)n3n2)n[nH]1 [Gandotinib] (1000 nM),104
6,COc1cc2c(NC3CCN(C(C)C)CC3)nc(N3CCC(F)(F)CC3)nc2cc1OCCCN1CCCC1 [UNC0642] (1000 nM),97.6

# System: MCF-10A
# Assay: as above
# Settings: incubation time: 72 h
# Procedure, shortened: as §1
row,Structure (SMILES),normalised response [%]
1,CCn1c(-c2nonc2N)nc2cnc(Oc3cccc(NC(=O)c4ccc(OCCN5CCOCC5)cc4)c3)cc21 (1000 nM),104
2,CNC(=O)c1cccc(-c2ccc3c(N4CCOC[C@@H]4C)nc(N4CCOC[C@@H]4C)nc3n2)c1 [AZD2014] (1000 nM),104
3,Nc1cc(C(F)(F)F)c(-c2cc(N3CCOCC3)nc(N3CCOCC3)n2)cn1 [Buparlisib] (1000 nM),-21.3
4,CCOC(=O)CCNc1cc(N2CCc3ccccc3CC2)nc(-c2ccccn2)n1 [GSK-J4] (10000 nM),89.3
5,Cc1cc(Nc2cc(CN3CCOCC3)c3nc(C)c(Cc4ccc(Cl)cc4F)n3n2)n[nH]1 [Gandotinib] (1000 nM),90.8
6,COc1cc2c(NC3CCN(C(C)C)CC3)nc(N3CCC(F)(F)CC3)nc2cc1OCCCN1CCCC1 [UNC0642] (1000 nM),90.6

# System: HCC1937
# Assay: normalised response (% of control), CellTiter-Glo; higher = more viable cells (100 = DMSO, 0 = benzethonium chloride kill control)
# Settings: incubation time: 72 h
# Procedure, shortened: as §1
row,Structure (SMILES),normalised response [%]
1,CCn1c(-c2nonc2N)nc2cnc(Oc3cccc(NC(=O)c4ccc(OCCN5CCOCC5)cc4)c3)cc21 (1000 nM),98.2
2,CNC(=O)c1cccc(-c2ccc3c(N4CCOC[C@@H]4C)nc(N4CCOC[C@@H]4C)nc3n2)c1 [AZD2014] (1000 nM),56.7
3,Nc1cc(C(F)(F)F)c(-c2cc(N3CCOCC3)nc(N3CCOCC3)n2)cn1 [Buparlisib] (1000 nM),89.5

# — the supplement of paper PMC4862054
